Experimental data as given in publication PMC11785687, “An efficient methodological approach for synthesis of selenopyridines: generation, reactions, anticancer activity, EGFR inhibitory activity and molecular docking studies” (Molecular Diversity, 2024).
Read-outs that look alike come from different tables or passages of the source.

Columns and labels:
[1] = system: prostate cancer (PC-3) cell line; test: SRB cytotoxicity assay, PC-3 cells; format: cell-based, human; settings: for inhibition of cell proliferation / cytotoxic effect (in words), PC-3: tested until 100 µM
Procedure: (§1) Fig. 3 The effect of synthesized compounds against the highly metastatic cancer cell lines PC-3 and MG-63 cell lines after 72 h incubation and viability was assessed by the SRB assay. Values represent the mean ± SD of three independent experiments
(§2) The SRB assay was used to evaluate the effect of the synthesized selenium containing heterocyclic compounds on cancer cells according to the previous literatures (see Supporting Information).
(§3) The human prostate cancer cells (PC3) and human osteosarcoma cells (MG-63) were obtained from Nawah Scientific Inc. (Mokatam, Cairo, Egypt) and cultured in DMEM (Dulbecco’s modified eagle’s medium), Gibco, USA, supplemented with fetal bovine serum (FBS) at a concentration of 10% and 100 U/mL of penicillin and streptomycin (PS). The Cells were incubated at 37 °C in a humidified environment that contained 5% CO2.
(§4) Cells were seeded in 96-well plates as aliquots of 100 μL cell suspension and incubated in a complete media for 24 h. Afterward, cells were treated with synthesized compounds at diverse concentrations ranging from 0.01 μM to 100 μM for 72 h. Then, cells were fixed at 4 °C for one hour with 150 μL of 10% trichloroacetic acid (TCA). After washing the cells five times with distilled water, 70 μL of sulforhodamine (SRB) solution (0.4% w/v) was added and incubated for 10 min at room temperature in a dark place. Cells were washed with 1% acetic acid three times and allowed to air-dry. Then, 150 μL of Tris pH 10.5 (10 mM) was added, and the absorbance was measured at 540 nm using a BMG LABTECH®- FLUOstar Omega microplate reader (Ortenberg, Germany). Half maximal inhibitory concentrations (IC50) values were calculated for each experiment using GraphPad Prism 6 software. IC50 values were reported as mean ± SD [53].

[2] = system: osteosarcoma (MG-63) cell line; test: SRB cytotoxicity assay, MG-63 cells; format: cell-based, human; settings: for inhibition of cell proliferation / cytotoxic effect (in words), MG-63: tested until 100 µM
Procedure: as §1, §2, §3, §4

[3] = molecular target: T1, EGFR kinase (Homo sapiens, UniProt P00533); test: EGFR-TK cell-free inhibitory assay; format: biochemical
T1 construct: purchased cloud clone SEA757Hu
Procedure: A cell-free assay was used to investigate the mechanism of inhibition of EGFR kinase according to the reported method (see Supporting Information).
A cell-free assay was used to investigate the mechanism of inhibition of EGFR kinase according to the reported method. […] 200 µM (EGFR) was used. […] Mean values of two independent replicates for each experiment were used for the interpolation.

[4] = Homo sapiens, PC-3, 72 h, read-out: IC50 values (µM) PC-3, SRB assay, 72 h incubation, mean ± SD
[5] = Homo sapiens, MG-63, 72 h, read-out: IC50 values (µM) MG-63, SRB assay, 72 h incubation, mean ± SD
[6] = read-out: IC50 values (µM) PC-3, SRB assay, 72 h incubation, mean ± SD
[7] = read-out: IC50 values (µM) MG-63, SRB assay, 72 h incubation, mean ± SD
[8] = Homo sapiens, PC-3, 72 h, SRB assay, 72 h incubation, mean ± SD, read-out: IC50 values (µM) PC-3
[9] = Homo sapiens, MG-63, 72 h, SRB assay, 72 h incubation, mean ± SD, read-out: IC50 values (µM) MG-63

T1 sequence (P00533 25-1210): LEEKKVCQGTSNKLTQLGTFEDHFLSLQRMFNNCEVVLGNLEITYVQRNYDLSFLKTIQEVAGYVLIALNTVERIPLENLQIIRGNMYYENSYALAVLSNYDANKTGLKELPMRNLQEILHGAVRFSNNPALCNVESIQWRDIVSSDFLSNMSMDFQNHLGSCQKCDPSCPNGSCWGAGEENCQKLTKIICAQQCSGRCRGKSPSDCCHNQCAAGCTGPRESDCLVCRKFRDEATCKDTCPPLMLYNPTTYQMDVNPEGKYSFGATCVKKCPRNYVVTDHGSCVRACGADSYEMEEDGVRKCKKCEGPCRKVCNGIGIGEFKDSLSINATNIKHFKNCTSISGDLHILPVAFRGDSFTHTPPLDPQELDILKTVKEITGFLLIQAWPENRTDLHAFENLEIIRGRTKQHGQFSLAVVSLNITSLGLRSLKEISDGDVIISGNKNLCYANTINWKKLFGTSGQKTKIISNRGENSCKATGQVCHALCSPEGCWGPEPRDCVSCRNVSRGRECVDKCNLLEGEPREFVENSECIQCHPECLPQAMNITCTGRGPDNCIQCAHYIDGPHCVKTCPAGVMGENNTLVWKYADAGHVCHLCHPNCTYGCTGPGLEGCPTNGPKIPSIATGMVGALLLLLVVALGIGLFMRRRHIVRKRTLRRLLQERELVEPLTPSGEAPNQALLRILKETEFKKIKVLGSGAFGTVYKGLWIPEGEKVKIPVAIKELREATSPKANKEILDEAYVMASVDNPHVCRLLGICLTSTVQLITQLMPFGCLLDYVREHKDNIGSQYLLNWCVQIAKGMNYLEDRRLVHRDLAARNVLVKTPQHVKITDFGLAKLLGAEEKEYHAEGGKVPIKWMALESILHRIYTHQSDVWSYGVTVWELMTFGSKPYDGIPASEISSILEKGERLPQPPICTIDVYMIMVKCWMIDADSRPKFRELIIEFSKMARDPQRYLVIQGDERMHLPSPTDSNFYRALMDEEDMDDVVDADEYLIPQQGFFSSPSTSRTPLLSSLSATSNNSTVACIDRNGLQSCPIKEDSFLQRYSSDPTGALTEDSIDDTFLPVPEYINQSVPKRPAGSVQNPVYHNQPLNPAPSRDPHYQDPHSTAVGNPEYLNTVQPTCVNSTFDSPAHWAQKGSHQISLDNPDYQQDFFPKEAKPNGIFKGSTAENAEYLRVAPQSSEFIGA

melting point [°C]	SMILES	IC50 [1, 4] [µM]	inhibition of cell proliferation / cytotoxic effect (in words), PC-3 ([1]; SRB assay)	IC50 [2, 5] [µM]	inhibition of cell proliferation / cytotoxic effect (in words), MG-63 ([2]; SRB assay)	further results
148 to 150	C[Se]c1nc(N)cc(N)c1C#N	–	–	–	–	–
176 to 178	N#CC[Se]c1nc(N)c(Br)c(N)c1C#N	–	–	–	–	–
198 to 200	N#Cc1c([Se][Se]c2nc(N)c(Sc3ccccc3)c(N)c2C#N)nc(N)c(Sc2ccccc2)c1N	–	–	–	–	–
236 to 238	N#Cc1c([Se][Se]c2nc(N)c(Sc3ccc(Cl)cc3)c(N)c2C#N)nc(N)c(Sc2ccc(Cl)cc2)c1N	–	–	–	–	–
–	Nc1nc2[se]c(-c3nc4ccccc4s3)c(N)c2c(N)c1Br [Compound 9, 2-(benzo[d]thiazol-2-yl)-5-bromo-selenopheno[2,3-b]-pyridine-3,4,6-triamine]	51.1 ± 3	low cytotoxic effects	62.8 ± 3.45	low cytotoxic effects	–
–	CC(=O)Nc1cc2c3c(c(C#N)[se]c3n1)N=C(C)N2 [Compound 11, N-(2-cyano-4-methyl-5H-1-seleno-3,5,8-triazaacenaphthylen-7-yl)acetamide]	34.7 ± 0.77	low cytotoxic effects	62.2 ± 1.51	low cytotoxic effects	–
–	N#Cc1[se]c2nc(N)c(N=Nc3ccccc3)c(N)c2c1N [Compound 12a, 3,4,6-Triamino-5-[phenyldiazenyl]selenopheno[2,3-b]pyridine-2-carbonitrile]	< 4	–	< 4	–	IC50 [1, 6]: 2.69 ± 0.03 µM; IC50 [2, 7]: 3.45 ± 0.2 µM; IC50 [3]: 0.301 ± 0.012 µM
–	Cc1ccc(N=Nc2c(N)nc3[se]c(C#N)c(N)c3c2N)cc1 [Compound 12b, 3,4,6-Triamino-5-(4-methylphenyl)diazenylselenopheno[2,3-b]pyridine-2-carbonitrile]	< 4	–	< 4	–	IC50 [1, 6]: 2.59 ± 0.02 µM; IC50 [2, 7]: 3.37 ± 0.22 µM; IC50 [3]: 0.123 ± 0.004 µM
–	COc1ccc(N=Nc2c(N)nc3[se]c(C#N)c(N)c3c2N)cc1 [Compound 12c, 3,4,6-Triamino-5-[(4-methoxyphenyl)diazenyl]selenopheno[2,3-b]pyridine-2-carbonitrile]	< 4	–	< 4	–	IC50 [1, 6]: 2.75 ± 0.09 µM; IC50 [2, 7]: 3.37 ± 0.12 µM
–	N#Cc1[se]c2nc(N)c(N=Nc3ccc(Cl)cc3)c(N)c2c1N [Compound 12d, 3,4,6-Triamino-5-[(4-chlorophenyl)diazenyl]selenopheno[2,3-b]pyridine-2-carbonitrile]	< 4	–	< 4	–	IC50 [1, 6]: 3.08 ± 0.01 µM; IC50 [2, 7]: 3.93 ± 0.23 µM
–	COc1cccc2c1C(=O)c1c(O)c3c(c(O)c1C2=O)C[C@@](O)(C(=O)CO)C[C@@H]3O[C@H]1C[C@H](N)[C@H](O)[C@H](C)O1 [DOX, doxorubicin, reference compound]	–	–	–	–	IC50 [1, 8]: 7.6 ± 0.45 µM; IC50 [2, 9]: 9.4 ± 1.1 µM
–	CS(=O)(=O)CCNCc1ccc(-c2ccc3ncnc(Nc4ccc(OCc5cccc(F)c5)c(Cl)c4)c3c2)o1 [Lapatinib, lapatinib, reference compound]	–	–	–	–	IC50 [1, 8]: 0.13 ± 0.04 µM; IC50 [2, 9]: 0.47 ± 0.03 µM

SMILES	melting point [°C]	IC50 [1, 4] [µM]	inhibition of cell proliferation / cytotoxic effect (in words), PC-3 ([1]; SRB assay)	IC50 [2, 5] [µM]	inhibition of cell proliferation / cytotoxic effect (in words), MG-63 ([2]; SRB assay)	further results
N#Cc1[se]c2nc(N)cc(N)c2c1N [Compound 2, 3,4,6-triamino-2-cyanoselenopheno[2,3-b]pyridine]	258 to 260	> 100	without significant inhibition of cell proliferation	> 100	without significant inhibition of cell proliferation	–
CN(C)c1cc(N)c(C#N)c([Se][Se]c2nc(N(C)C)cc(N)c2C#N)n1 [Compound 4]	172 to 174	233 ± 2.6	without significant inhibition of cell proliferation	240 ± 3.2	without significant inhibition of cell proliferation	–
N#Cc1[se]c2nc(N)c(Br)c(N)c2c1N [Compound 7, 3,4,6-triamino-5-bromoselenopheno[2,3-b]pyridine-2-carbonitrile]	268 to 270	> 100	without significant inhibition of cell proliferation	> 100	without significant inhibition of cell proliferation	–
